Data published in article PMC10373461, “Discovery of a Hidden Trypanosoma cruzi Spermidine Synthase Binding Site and Inhibitors through In Silico, In Vitro, and X-ray Crystallography” (ACS Omega, 2023).

Key:
[1] = target: T1, Trypanosoma cruzi spermidine synthase (TcSpdSyn) (Trypanosoma cruzi, UniProt Q4DA73); assay: X-ray co-crystal structure; SSAT1-coupled enzyme inhibition assay (hydrochloride salt); assay type: biochemical
T1 construct: gene Tc00.1047053510339.50
T1 sequence (Q4DA73 1-296): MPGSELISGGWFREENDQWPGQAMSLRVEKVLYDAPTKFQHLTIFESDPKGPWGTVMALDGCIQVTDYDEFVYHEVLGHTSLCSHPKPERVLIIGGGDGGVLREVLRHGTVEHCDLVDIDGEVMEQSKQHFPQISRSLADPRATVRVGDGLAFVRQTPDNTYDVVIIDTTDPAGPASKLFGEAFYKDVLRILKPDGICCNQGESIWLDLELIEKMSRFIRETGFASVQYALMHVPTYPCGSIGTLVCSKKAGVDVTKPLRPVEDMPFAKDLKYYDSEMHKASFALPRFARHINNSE

[2] = target: T1, Trypanosoma cruzi spermidine synthase (TcSpdSyn); assay: X-ray co-crystal structure; SSAT1-coupled enzyme inhibition assay; assay type: biochemical

IC50 [1]	IC50 [2]	Structure (SMILES)
43.4 µM	–	COc1ccc(Nc2ccnc3ccccc23)cc1 [compound 2]
–	82.3 µM	COc1ccc(C2=N[C@H](C)CN2)c(O)c1 [compound 1]
